US20140308317A1, “Polymeric Compounds And Methods Of Making And Using The Same” (CELLCEUTIX CORPORATION, priority 2012, published 2014)
Converted amounts (≈) assume the structure as drawn.

Legend:
[1] = Cytotoxicity colorimetric (tetrazolium) assay; assay type: cell-based, mouse; details: mouse, NIH/3T3 cells, one hour with compound in serum-free media
Procedure: (§1) Cytotoxicity of the compounds was evaluated in a colorimetric assay using a transformed human liver cell line (HepG2, HB-8065) and an embryonic mouse cell line (NIH/3T3 cells, CRL-1658). This assay measures the bioreduction of a novel tetrazolium compound to a soluble formazan product by viable cells. HepG2 cells were seeded in 96 well plates at 2×10^4 cells/well in MEM medium with 10% fetal bovine serum (FBS) 24 hours prior to use. NIH/3T3 cells were seeded in 96 well plates at 2×10^4 cells/well in DMEM medium with 10% bovine calf serum (BCS) 24 hours prior to use. Cell monolayers were rinsed in serum-free media and incubated for one hour with compounds in serum-free media. After incubation, the media is replaced with serum supplemented media and live cells were measured using the Cell Titer 96 Aqueous […] Assay kit (Promega, Madison, Wis.). EC50 values were determined using a four parameter logistic equation: Y=Bottom+(Top-Bottom)/(1+10̂((LogEC50−X)*HillSlope)).
(§2) Actual results from a representative cytotoxicity assay are shown below in Table 2. Data is expressed as EC50 in μg/mL.

E. Coli ATCC 25922 = assay: Minimum Inhibitory Concentration (MIC), modified microbroth dilution; assay type: cell-based; details: E. coli (25922), overnight incubation (18 hours); for MIC50: Escherichia coli, ATCC25922, read-out: MIC50 E. coli
[2] = system: Klebsiella pneumoniae ATCC 13883; assay: as above; assay type: cell-based; details: K. pneumoniae (13883), overnight incubation (18 hours); for MIC50: Klebsiella pneumoniae, ATCC13883, read-out: MIC50 K. Pnuemnoiae
[3] = system: Pseudomonas aeruginosa ATCC 10145; assay: as above; assay type: cell-based; details: P. aeruginosa (10145), overnight incubation (18 hours); for MIC50: Pseudomonas aeruginosa, ATCC10145, read-out: MIC50 P. Aeruginosa
[4] = system: Staphylococcus aureus ATCC 27660; assay: as above; assay type: cell-based; details: S. aureus (27660), overnight incubation (18 hours); for MIC50: Staphylococcus aureus, ATCC27660, read-out: MIC50 S. aureus
[5] = system: Enterococcus faecalis ATCC 29212; assay: as above; assay type: cell-based; details: E. faecalis (29212), overnight incubation (18 hours); for MIC50: Enterococcus faecalis, ATCC29212, read-out: MIC50 E. faecalis
[6] = Cytotoxicity colorimetric (tetrazolium) assay; assay type: cell-based, human; details: human, HepG2 cells, one hour with compound in serum-free media
Procedure: as §1, §2

N=C(N)NCCC#Cc1cc(-c2cc(OCCCNC(=N)N)cc(-c3cc(C#CCCNC(=N)N)cc(C(F)(F)F)c3)c2)cc(C(F)(F)F)c1 [Compound 121]
EC50 at 1 h ([1]; NIH/3T3 cells (CRL-1658)): 37 µg/mL (≈ 52.9 µM)

N=C(N)NCC#Cc1cc(C#CCNC(=N)N)cc(-c2cccc(-c3cc(C#CCNC(=N)N)cc(C#CCNC(=N)N)c3)c2)c1 [Compound 123]
MIC50 (E. Coli ATCC 25922): 3.13 µg/mL (≈ 5.13 µM) | EC50 at 1 h ([1]; NIH/3T3 cells (CRL-1658)): 115 µg/mL (≈ 188 µM) | MIC50 [2]: 12.5 µg/mL (≈ 20.5 µM) | MIC50 [3]: 6.25 µg/mL (≈ 10.2 µM) | MIC50 [4]: 0.78 µg/mL (≈ 1.28 µM) | MIC50 [5]: 0.78 µg/mL (≈ 1.28 µM)

NCC#Cc1cc(C#CCN)cc(-c2cccc(-c3cc(C#CCN)cc(C#CCN)c3)c2)c1 [Compound 124]
MIC50 (E. Coli ATCC 25922): 50 µg/mL (≈ 113 µM) | EC50 at 1 h ([1]; NIH/3T3 cells (CRL-1658)): 192 µg/mL (≈ 435 µM) | MIC50 [2]: > 50 µg/mL | MIC50 [3]: 50 µg/mL (≈ 113 µM) | MIC50 [4]: 50 µg/mL (≈ 113 µM) | MIC50 [5]: 25 µg/mL (≈ 56.5 µM)

N=C(N)Nc1ccc(-c2nnc(-c3ccc(NC(=N)N)cc3)o2)cc1 [Compound 127]
MIC50 (E. Coli ATCC 25922): > 100 µg/mL | MIC50 [2]: > 100 µg/mL | MIC50 [3]: > 100 µg/mL | MIC50 [4]: 50 µg/mL (≈ 149 µM) | MIC50 [5]: > 100 µg/mL

NCCc1cc(CCN)cc(-c2ccc(-c3cccc(-c4ccc(-c5cc(CCN)cc(CCN)c5)s4)c3)s2)c1 [Compound 138]
MIC50 (E. Coli ATCC 25922): 12.5 µg/mL (≈ 22.1 µM) | MIC50 [2]: 25 µg/mL (≈ 44.1 µM) | MIC50 [3]: 12.5 µg/mL (≈ 22.1 µM) | MIC50 [4]: 0.39 µg/mL (≈ 0.688 µM) | MIC50 [5]: 1.56 µg/mL (≈ 2.75 µM)

N=C(N)NCCc1cc(CCNC(=N)N)cc(-c2ccc(-c3cccc(-c4ccc(-c5cc(CCNC(=N)N)cc(CCNC(=N)N)c5)s4)c3)s2)c1 [Compound 139]
MIC50 (E. Coli ATCC 25922): 6.25 µg/mL (≈ 8.5 µM) | MIC50 [2]: 3.13 µg/mL (≈ 4.26 µM) | MIC50 [3]: 12.5 µg/mL (≈ 17 µM) | MIC50 [4]: 0.39 µg/mL (≈ 0.531 µM) | MIC50 [5]: 0.78 µg/mL (≈ 1.06 µM)

O=C(Nc1ccc(-c2ccc(N3CCNCC3)nc2)cc1F)Nc1ccc(-c2ccc(N3CCNCC3)nc2)cc1F [Compound 141]
MIC50 (E. Coli ATCC 25922): 6.25 µg/mL (≈ 11 µM) | EC50 at 1 h ([1]; NIH/3T3 cells (CRL-1658)): 404 µg/mL (≈ 708 µM) | MIC50 [2]: 25 µg/mL (≈ 43.8 µM) | MIC50 [3]: 12.5 µg/mL (≈ 21.9 µM) | MIC50 [4]: 25 µg/mL (≈ 43.8 µM) | EC50 at 1 h ([6]; HepG2 cells (HB-8065)): 24.4 µg/mL (≈ 42.8 µM)

NCCCN1c2ccc(NC(=O)Nc3ccc4c(c3)Sc3ccc(C(F)(F)F)cc3N4CCCN)cc2Sc2ccc(C(F)(F)F)cc21 [Compound 143]
MIC50 (E. Coli ATCC 25922): 0.78 µg/mL (≈ 1.11 µM) | MIC50 [2]: 3.13 µg/mL (≈ 4.44 µM) | MIC50 [3]: 12.5 µg/mL (≈ 17.7 µM) | MIC50 [4]: 0.78 µg/mL (≈ 1.11 µM) | MIC50 [5]: 1.56 µg/mL (≈ 2.21 µM)

NCCc1cc(CCN)cc(-c2cc(F)cc(-c3cc(F)cc(-c4cc(CCN)cc(CCN)c4)c3)c2)c1 [Compound 150]
EC50 at 1 h [1]: 427 µg/mL (≈ 830 µM) | EC50 at 1 h [6]: 486 µg/mL (≈ 944 µM)

NCCCn1cc(-c2ccc3oc4ccc(-c5cnn(CCCN)c5)cc4c3c2)cn1 [Compound 157]
MIC50 (E. Coli ATCC 25922): 50 µg/mL (≈ 121 µM) | EC50 at 1 h ([1]; NIH/3T3 cells (CRL-1658)): 713 µg/mL (≈ 1720 µM) | MIC50 [3]: 25 µg/mL (≈ 60.3 µM) | MIC50 [4]: 6.25 µg/mL (≈ 15.1 µM) | EC50 at 1 h ([6]; HepG2 cells (HB-8065)): 461 µg/mL (≈ 1110 µM) | MIC50 [5]: 25 µg/mL (≈ 60.3 µM)

NCCNc1ccc(-c2ccc3sc4ccc(-c5ccc(NCCN)cc5)cc4c3c2)cc1 [Compound 173]
MIC50 E. coli (E. Coli ATCC 25922): 6.25 µg/mL (≈ 13.8 µM) | MIC50 K. Pnuemnoiae [2]: 3.13 µg/mL (≈ 6.92 µM) | MIC50 P. Aeruginosa [3]: >50 µg/mL | MIC50 S. aureus [4]: 0.195 µg/mL (≈ 0.431 µM) | MIC50 E. faecalis [5]: 1.56 µg/mL (≈ 3.45 µM)

CCn1c2ccc(-c3cccc(N)c3)cc2c2cc(-c3cccc(N)c3)ccc21 [Compound 176]
MIC50 E. coli (E. Coli ATCC 25922): 12.5 µg/mL (≈ 33.1 µM) | MIC50 K. Pnuemnoiae [2]: >50 µg/mL | MIC50 P. Aeruginosa [3]: 12.5 µg/mL (≈ 33.1 µM) | MIC50 S. aureus [4]: 0.39 µg/mL (≈ 1.03 µM) | MIC50 E. faecalis [5]: >50 µg/mL

NCCCn1c2cc(-c3cccc(CN(CCN)CCN)c3)ccc2c2ccc(-c3cccc(CN(CCN)CCN)c3)cc21 [Compound 178]
MIC50 (E. Coli ATCC 25922): 3.13 µg/mL (≈ 5.16 µM) | MIC50 [2]: 12.5 µg/mL (≈ 20.6 µM) | MIC50 [3]: 12.5 µg/mL (≈ 20.6 µM) | MIC50 [4]: 0.39 µg/mL (≈ 0.643 µM) | EC50 at 1 h ([6]; HepG2 cells (HB-8065)): 228 µg/mL (≈ 376 µM) | MIC50 [5]: 12.5 µg/mL (≈ 20.6 µM)

N=C(N)NCCCOc1cc(OCCCNC(=N)N)cc(-c2ccc3sc4ccc(-c5cc(OCCCN)c(OCCCN)c(OCCCN)c5)cc4c3c2)c1 [Compound 185]
MIC50 E. coli (E. Coli ATCC 25922): 6.25 µg/mL (≈ 7.95 µM) | MIC50 K. Pnuemnoiae [2]: 12.5 µg/mL (≈ 15.9 µM) | MIC50 P. Aeruginosa [3]: 25 µg/mL (≈ 31.8 µM) | MIC50 S. aureus [4]: 0.78 µg/mL (≈ 0.992 µM) | MIC50 E. faecalis [5]: 1.56 µg/mL (≈ 1.98 µM)

N=C(N)NCCCOc1cc(-c2ccc3sc4ccc(-c5cc(OCCCNC(=N)N)c(OCCCNC(=N)N)c(OCCCNC(=N)N)c5)cc4c3c2)cc(OCCCNC(=N)N)c1OCCCNC(=N)N [Compound 186]
MIC50 E. coli (E. Coli ATCC 25922): 12.5 µg/mL (≈ 12.2 µM) | MIC50 K. Pnuemnoiae [2]: 6.25 µg/mL (≈ 6.08 µM) | MIC50 P. Aeruginosa [3]: 12.5 µg/mL (≈ 12.2 µM) | MIC50 S. aureus [4]: 0.78 µg/mL (≈ 0.759 µM) | MIC50 E. faecalis [5]: 3.13 µg/mL (≈ 3.05 µM)

NCC(CN)c1cc(Br)cc(C#Cc2cccc(C#Cc3cc(Br)cc(C(CN)CN)c3)c2)c1 [Compound 190]
MIC50 (E. Coli ATCC 25922): 1.56 µg/mL (≈ 2.69 µM) | MIC50 [2]: 3.13 µg/mL (≈ 5.39 µM) | MIC50 [3]: 12.5 µg/mL (≈ 21.5 µM) | MIC50 [4]: 0.78 µg/mL (≈ 1.34 µM) | MIC50 [5]: 0.39 µg/mL (≈ 0.672 µM)
